# Experimental data reported in patent US11986450B2, “Methods and compositions for treating infection and inflammation with selenocyanate” (National Jewish Health, priority 2017, dated 2024).
# Key:
# [1] = system: Sec-TrxR activity in J774 cells; assay: Sec-TrxR activity induction in J774 cells; assay type: cell-based; conditions: 2 hours exposure, lysates measured 24 hours later
# Method: FIG. 17. […] Cells were exposed to increasing concentrations of HOSCN, hydrogen peroxide or 100 ng/ml PA LPS for 2 hours and then cell lysates where measured 24 hours later for Sec-TrxR activity.
# The role of extracellular SCN in modulating neutrophil responses to infectious stimuli, and to test how this impacts their ability to kill or suppress bacterial growth and attenuate pro-inflammatory environments is determined as provided for in Example 3 herein. De-identified human blood neutrophils from normal and CF subjects are used. Readouts include changes in bacterial growth rates, phagocytosis, and cytokine release over time correlated to changes in intracellular ^−SCN and Sec-TrxR levels. Additionally, how extracellular thiol levels modulate leukocyte function by changing intracellular thiol status and its known effects on dampening NFkB cell signaling pathways based on previous work with GSH (Gould, N. S., et al. (2011) Macropinocytosis of extracellular glutathione ameliorates tumor necrosis factor alpha release in activated macrophages. PLoS One 6, e25704) is disclosed. […] Since HOSCN is an oxidant and capable of redox signaling, examination of whether it can regulate its own metabolism by inducing Sec-TrxR expression is done.
# [2] = system: P. aeruginosa: AMT0105L; assay: HOSCN reductase activity
# [3] = system: Pseudomonas aeruginosa (PA01); assay: Bacterial viability (CFU) after HOSCN generation; assay type: cell-based; conditions: 2 hrs, about 120 μM/hr
# Method: (§1) FIGS. 4A-4B. […] Studies were conducted under similar conditions that generated about 120 μM/hr of either HOCl or HOSCN. (FIG. 4A) Human bronchiolar lung cells (16HBE) or (FIG. 4B) Pseudomonas aeruginosa (PA01) were treated for 2 hrs with glucose oxidase (GOX) system (generates H2O2), enzyme alone (MPO or LPO), or full system (enzyme+GOX), or full system with […]. Viability was assessed 24 hrs later by lactate dehydrogenase release for lung cells or determination of colony forming units (CFUs) for bacteria.
# [4] = system: P. aeruginosa: AMT0145L; assay: HOSCN reductase activity
# [5] = system: E. coli: AB1157; assay: Viability after HOSCN exposure
# [6] = system: P. aeruginosa: AMT0294L; assay: Viability after HOSCN exposure; conditions: late disease antibiotic-resistant CF isolate
# [7] = molecular target: Sec-containing TrxR2 (Sec-TrxR2) (Mus musculus, UniProt Q9JLT4); assay: Inactivation of TrxR by oxidants; assay type: biochemical
# Method: (§2) Based on data, it is expected that Sec-TrxR1 is able to metabolize both HOSCN and HOSeCN but not HOCl, and that Cys-TrxR's is unable to metabolize these oxidants. The active site Cys or Sec residue of each respective enzyme is oxidized to either Cys-SO2^− or Sec-SeO2^−. The Cys-TrxR cannot recover from this oxidation while the Sec-TrxR can. To test this, an inactivation assay is performed followed by structural analysis of the protein by MS. In the inactivation assay, (i) enzymes are reduced with NADPH, (ii) the enzymes are treated with oxidant followed by desalting to remove oxidant, and (iii) the enzyme is assayed for activity. […] The proteins are proteolyzed followed by LC-MS analyses. The LC-MS profiles are compared to control samples not treated with oxidant. This determines the exact mechanism of inactivation for each enzyme. […] This would explain why HOCl is highly inflammatory (nonspecific oxidation), and why HOSCN is used as a bactericide because it can rapidly inactivate proteins/enzyme by oxidation of sulfur amino acids (Cys, Met), but can be metabolized by the host cell by Sec-TrxR.
# [8] = molecular target: DmTrxR (containing Cys) (Drosophila melanogaster, UniProt P91938); assay: Inactivation of TrxR by oxidants; assay type: biochemical
# Method: as §2
# [9] = molecular target: purified E. coli Cys-TrxR (Escherichia coli, UniProt P0A9P4); assay: Sulfenic acid (dimedone label) formation, western blot; assay type: biochemical; conditions: 5 minutes exposure; reversible by NAC
# Method: FIG. 15. Western blot of sulfenic acid (dimedione label) formation on purified E. coli Cys-TrxR after 5 minutes HOSCN exposure (molar ratios label each lane) or plus 1 minute PBS or N-acetylcysteine (NAC). For lane 8, H2O2 was used instead of HOSCN.
# HOSCN is an interesting oxidant due to its affinity for only very acidic thiol groups on proteins (Barrett, T. J., et al. (2012) Inactivation of thiol-dependent enzymes by hypothiocyanous acid: role of sulfenyl thiocyanate and sulfenic acid intermediates. Free Radic Biol Med 52, 1075-1085). This property of HOSCN allows it to diffuse much easier to distant targets. Cys-TrxR has two cysteine residues in its active site that are acidic and it is expected that HOSCN oxidizes them as part of its mechanism of inactivation. Data has shown that dimedone labels sulfenic acid residues in E. coli Cys-TrxR upon selective thiol oxidation by HOSCN (FIG. 15). […] This probe can be used in tandem with western blotting and LC-MS approaches to characterize thiol oxidation of bacterial Cys-TrxRs. Although previous studies have looked at potential bacteria targets for oxidative inactivation by oxidants produced by haloperoxidases, Cys-TrxR was not previously identified (Tenovuo, J., and Pruitt, K. M. (1984) Relationship of the human salivary peroxidase system to oral health. J Oral Pathol 13, 573-584).
# [10] = system: P. aeruginosa: AMT0145L; assay: Viability after HOSCN exposure; conditions: late disease antibiotic-resistant CF isolate
# [11] = system: Human bronchiolar lung cells (16HBE); assay: Lung cell viability (LDH release) after HOSCN generation; assay type: cell-based; conditions: 2 hrs, about 120 μM/hr, viability 24 hrs later
# Method: as §1
# [12] = system: P. aeruginosa: AMT0294L; assay: HOSCN reductase activity
# Sequence of Sec-containing TrxR2 (Sec-TrxR2) (Q9JLT4 35-524): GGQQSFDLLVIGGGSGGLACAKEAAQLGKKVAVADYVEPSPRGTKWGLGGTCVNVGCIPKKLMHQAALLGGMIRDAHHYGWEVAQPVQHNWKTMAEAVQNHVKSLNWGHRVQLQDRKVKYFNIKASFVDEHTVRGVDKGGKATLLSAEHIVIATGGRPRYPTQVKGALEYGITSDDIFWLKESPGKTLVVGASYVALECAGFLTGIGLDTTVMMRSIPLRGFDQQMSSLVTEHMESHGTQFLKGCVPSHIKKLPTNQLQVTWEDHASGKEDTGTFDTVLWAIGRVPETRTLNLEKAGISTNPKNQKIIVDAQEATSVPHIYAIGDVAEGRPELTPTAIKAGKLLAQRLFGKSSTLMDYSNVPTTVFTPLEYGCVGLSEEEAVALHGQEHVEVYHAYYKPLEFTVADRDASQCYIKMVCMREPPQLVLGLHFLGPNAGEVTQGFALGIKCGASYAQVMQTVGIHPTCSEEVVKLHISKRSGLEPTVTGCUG
# Sequence of DmTrxR (containing Cys) (P91938 112-596 limits assumed): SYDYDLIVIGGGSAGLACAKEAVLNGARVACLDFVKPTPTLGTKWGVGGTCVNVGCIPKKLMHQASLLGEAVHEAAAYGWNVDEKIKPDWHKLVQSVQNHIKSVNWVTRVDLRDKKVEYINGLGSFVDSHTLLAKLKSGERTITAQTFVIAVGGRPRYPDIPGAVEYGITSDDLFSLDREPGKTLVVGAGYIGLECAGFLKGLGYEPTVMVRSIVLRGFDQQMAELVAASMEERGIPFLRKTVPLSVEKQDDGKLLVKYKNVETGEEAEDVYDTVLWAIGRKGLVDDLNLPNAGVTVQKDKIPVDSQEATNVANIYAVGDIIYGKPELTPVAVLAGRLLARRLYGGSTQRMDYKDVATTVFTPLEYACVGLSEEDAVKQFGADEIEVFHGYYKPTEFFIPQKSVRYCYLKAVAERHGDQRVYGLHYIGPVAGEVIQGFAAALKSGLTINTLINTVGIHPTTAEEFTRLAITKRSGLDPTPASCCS
# Sequence of purified E. coli Cys-TrxR (P0A9P4 whole entry): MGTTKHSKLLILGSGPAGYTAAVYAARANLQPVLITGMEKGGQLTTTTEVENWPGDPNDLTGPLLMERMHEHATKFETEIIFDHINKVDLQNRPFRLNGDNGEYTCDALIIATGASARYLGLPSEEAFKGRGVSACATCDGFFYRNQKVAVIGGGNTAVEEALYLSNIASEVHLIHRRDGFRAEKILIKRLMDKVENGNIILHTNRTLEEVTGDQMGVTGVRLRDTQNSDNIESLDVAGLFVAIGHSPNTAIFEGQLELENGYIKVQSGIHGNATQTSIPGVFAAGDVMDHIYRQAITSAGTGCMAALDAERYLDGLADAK
structure (smiles),measurement,setting,value
"N#CSO [HOSCN, hypothiocyanite]",Sec-TrxR activity,[1],induces Sec-TrxR activity
same,Apparent Vmax (HOSCN reductase activity),[2],ND^c (No activity detected. Limit of detection = 0.5 nmol mg^−1 min^−1)
same,Bacterial viability (CFU),[3],killing bacteria
same,Apparent Vmax (HOSCN reductase activity),[4],1.4 ± 0.1 nmol/mg/min
same,Viability (%),[5],0%
same,Viability (%),[6],0%
same,Inactivation of Sec-TrxR2 by oxidant,[7],resists inactivation
same,Inactivation of DmTrxR by oxidant,[8],is inactivated
same,Oxidation of Cys-TrxR,[9],rapidly oxidized
same,Viability (%),[10],24.8 ± 2.5%
same,Lung cell viability,[11],spares host lung epithelial cells
same,Apparent Vmax (HOSCN reductase activity),[12],ND^c (No activity detected. Limit of detection = 0.5 nmol mg^−1 min^−1)
